{"source": "patent US10617662B2", "about": "“Autophagy activation-induced compound for improving skin inflammation for aging” (INCOSPHARM CORPORATION, priority 2017, dated 2020)", "key": {"[1]": {"test_system": "ALOX12B (Arachidonate 12-lipoxygenase, 12R type)", "experiment": "RT-PCR of psoriasis-related gene ALOX12B", "format": "cell-based, human", "conditions": "HEKa cells, 20 uM, FIGS. 2 and 3", "experimental": "(§1) A psoriasis-related genes were selected from the cDNA array result in which Compound 8 of the present invention was treated in HaCaT cells. In order to analyze whether Compound 8 has an effect on psoriasis alleviation, RT-PCR analysis for IL-36′ (interleukin 36 gamma), KLK7 (Kallikrein-related peptidase 7), OASL (2′-5′-Oligoadenylate Synthetase Like) and ALOX12B (Arachidonate 12-lipoxygenase, 12R type) which are very closely related to psoriasis was carried out. Further, KRT16 (Keratin 16), KRT6 (Keratin 6) and KRT1 (Keratin 1), known as psoriasis-related proliferation, differentiation markers were confirmed by a western blot analysis. As the specific experimental method, HEKa cells (Human Epidermal keratinocytes, adult), human-derived epidermal keratinocytes were seeded on a 24 well plate at a density of 1×10^5 cells, and cultured in an EpiLife medium (1× Human keratinocyte Growth supplement, 1× antibiotics) in an incubator under 37° C. and 5% CO2 for 24 hours. […]"}, "[2]": {"test_system": "ULK-1 (Serine/threonine-protein kinase-1)", "experiment": "Western blot for ULK-1 protein", "format": "cell-based, human", "conditions": "HaCaT cells; 20 uM dilution, 1 ml added to 1 ml medium; FIG. 1", "experimental": "In order to analyze which gene expression is related to increased autophagy activation by Compound 8 of the present invention, a western blot analysis for Beclin-1 and ULK-1 (Serine/threonine-protein kinase-1) proteins which are closely related to autophagy activation was performed.\nAs a specific experimental method, HaCaT cells, human-derived keratinocytes were seeded on a 60Ø dish at a density of 3×10^5 cells, and cultured in DMEM (Dulbecco's Modified Eagle Media, Gibco BRL) in an incubator under 37° C. and 5% CO2 for 24 hours. Compound 8 of the present invention was dissolved in DMSO at a concentration of 10 mM each to be a concentrate, and diluted with a medium to be at a concentration of 20 uM. Then in a state where 1 ml of medium was first in each well, 1 ml of each diluted solution was added thereto for treatment, and cultured for a certain period, and after completing the culturing, the medium was removed, and then cells were disrupted with a SDS sample buffer, and each protein was separated by SDS-PAGE gel electrophoresis, and transferred to a PVDF membrane. […]"}, "[3]": {"test_system": "KLK7 (Kallikrein-related peptidase 7)", "experiment": "RT-PCR of psoriasis-related gene KLK7", "format": "cell-based, human", "conditions": "HEKa cells, 20 uM, FIGS. 2 and 3", "experimental": "as §1"}, "[4]": {"test_system": "psoriasis animal model induced by imiquimod 5% cream", "experiment": "Psoriasis animal model, ear thickness", "format": "in vivo, BALB/c mice", "conditions": "ears treated together with imiquimod; digital caliper; FIG. 18", "experimental": "In order to confirm the psoriasis treatment effect by Compound 8 of the present invention, dorsal hair of 8-week-old BALB/c mice (female) was removed using hair removal cream (Veet®, Oxy Reckitt Benckiser, Cedex, France), and subsequently imiquimod 5% cream (Aldara®; 3M Pharmaceuticals, UK; 62.5 mg) was applied on the back and both ears of the mice twice in the morning and in the afternoon (Sensitization; Day 0). Then, after a barrier recovery period of 2 days, imiquimod 5% cream (62.5 mg/day) was applied repeatedly for 7 days (Induction stage; Day 2 -Day 8), thereby inducing the psoriasis animal model.\nThere was no treatment on the left ear of the untreated control group, and the right ear was treated with cream not containing imiquimod and ethanol. The left ear of the experimental groups was treated only with imiquimod and ethanol, whereas the right ear of the experimental groups was treated with either Compound 8 or Compound 8 cream of the present invention together with imiquimod, and such method is specifically shown in FIG. 12.\nWhen the animals were slaughtered, the thickness of the central part of both ears was measured using a digital caliper (Digital caliper, Marathon Inc. Belleville, ON, Canada)."}, "[5]": {"test_system": "KRT1 (Keratin 1)", "experiment": "Western blot of differentiation marker KRT1", "format": "cell-based, human", "conditions": "FIG. 4", "experimental": "as §1"}, "[6]": {"test_system": "KRT16 (Keratin 16)", "experiment": "Western blot of proliferative marker KRT16", "format": "cell-based, human", "conditions": "FIG. 4", "experimental": "as §1"}, "[7]": {"test_system": "CXCL2 (Chemokine (C-X-C motif) ligand 2)", "experiment": "Cytokine gene expression, CXCL2, TNFα/IFN-γ induced inflammatory condition", "format": "cell-based, human", "conditions": "FIG. 8"}, "[8]": {"test_system": "IL-8 (interleukin 8)", "experiment": "ELISA for IL-8 in HEKa cells under inflammatory condition", "format": "cell-based, human", "conditions": "TNF-α/IFN-γ or IL-17A/IL-22 induced inflammatory condition, 10·M, FIGS. 5 to 7", "experimental": "In order to analyze whether treatment of Compound 8 has an atopy alleviation effect, ELISA (enzyme-linked immunosorbent assay) for IL-6 (interleukin 6) and IL-8 (interleukin 8) which are very closely related to atopic inflammation and psoriasis was performed.\nAs the specific experimental method, HEKa cells (Human Epidermal keratinocytes, adult), human-derived epidermal keratinocytes were seeded on a 24 well plate at a density of 1×10^5 cells, and cultured in an EpiLife medium (1× Human keratinocyte Growth supplement, 1× antibiotics) in an incubator under 37° C. and 5% CO2 for 24 hours.\nAfter culturing, while an inflammatory condition was induced by treatment with either TNF-α (Tumor necrosis factor-α)/IFN-γ (interferon-γ) or IL-17A (interleukin-17A)/IL-22 (interleukin-22) in each well, further treatment was performed with Compound 8 of the present invention at a concentration of 10·M, and then the cells were incubated for a certain period. After completing culturing, media were collected, and then ELISA for each IL-6 and IL-8 was carried out."}, "[9]": {"test_system": "CCL20 (Chemokine (C-C motif) ligand 20)", "experiment": "Cytokine gene expression, CCL20, IL-17A/TNF-α condition", "format": "cell-based, human", "conditions": "FIG. 9"}, "[10]": {"test_system": "IL-20 (interleukin-20)", "experiment": "Cytokine gene expression, IL-20, TNFα/IFN-γ induced inflammatory condition", "format": "cell-based, human", "conditions": "FIG. 8"}}}
{"smiles": "CCCCCCCCCCCCCCCC(=O)NCCCC[C@H](NC(=O)[C@H](CCCCN(CC(=O)O)CC(=O)O)N(CC(=O)O)CC(=O)O)C(=O)O", "note": "[Compound 8]", "values": [{"measurement": "expression level of ALOX12B gene", "setting": "[1]", "value": "significantly decreased"}, {"measurement": "expression of ULK-1 protein", "setting": "[2]", "value": "significantly increased"}, {"measurement": "expression level of KLK7 gene", "setting": "[3]", "value": "significantly decreased"}, {"measurement": "thickness of the right (treated) ear compared with the left ear treated with 5% imiquimod and ethanol", "setting": "[4]", "value": "significant thickness reduction"}, {"measurement": "KRT1 (differentiation marker) level", "setting": "[5]", "value": "increased"}, {"measurement": "KRT16 (proliferative marker) level", "setting": "[6]", "value": "reduced"}, {"measurement": "expression level of CXCL2", "setting": "[7]", "value": "reduced"}, {"measurement": "secretion of IL-8", "setting": "[8]", "value": "significantly reduced"}, {"measurement": "expression level of CCL20", "setting": "[9]", "value": "reduced"}, {"measurement": "expression level of IL-20", "setting": "[10]", "value": "reduced"}]}
